Literature values, collected in US20190187141A1, “Biomarkers for Detection and Treatment of Mast Cell Activity-Associated Disorders” (Arete Discoveries, Inc., priority 2016, published 2019).
Structures can show the parent of a compound that is named as a salt.

Assays:
[1] = test system: lymphocytes, macrophages, mast cells and dendritic cells
mast cells [2] = settings: in vitro
[3] = open label, 20 MS patients
mast cells [4] = test system: mast cells
[5] = phase II study
[6] = phase II trial, 35 progressive MS patients
cultured mast cells = settings: pannexin1 hemichannel dependent mechanism
mast cells [7] = settings: AD animal models; connexin 43 and pannexin1 hemichannel dependent

Compound: Cc1ccc(NC(=O)c2ccc(CN3CCN(C)CC3)cc2)cc1Nc1nccc(-c2cccnc2)n1 [Imatinib]
- secretion of pro-inflammatory cytokines IFN-γ, TNF-α, IL-1β and IL-17 and MMPs [1]: inhibiting
- anti-proliferative activity and immunomodulatory effects ([1]; lymphocytes, macrophages, mast cells and dendritic cells): exerts anti-proliferative activity and immunomodulatory effects

Compound: COC(=O)/C=C/C(=O)OC [dimethyl fumarate]
- apoptosis of mast cells (mast cells [2]): induces apoptosis of mast cells in vitro

Compound: OCCOCCN1CCN(C(c2ccccc2)c2ccc(Cl)cc2)CC1 (centres unmarked) [hydroxyzine]
- degranulation of mast cells within the thalamus (EAE; EAE): inhibit
- progression and severity of EAE (EAE; in vivo): inhibit the progression and severity of EAE
- neurological outcome in MS patients [3]: stability or improvement neurologically

Compound: Cc1ccc(NC(=O)c2ccc(CN3CCN(C)CC3)cc2)cc1Nc1nc(-c2cccnc2)cs1 [masitinib]
- inhibition of survival, migration and activity of mast cells (mast cells [4]): effectively inhibits the survival, migration and activity of mast cells
- cognitive decline in AD patients [5]: some benefit in slowing cognitive decline
- efficacy in progressive MS [6]: some efficacy

Compound: Amyloid beta (Aβ) peptide 25-35 (GSNKGAIIGLM; Amyloid-beta protein 42; UniProt P05067 696-706, looked up, fragment) [amyloid beta peptide fragment 25-35]
- degranulation of cultured mast cells (cultured mast cells): causes rapid degranulation of cultured mast cells
- mast cell dye uptake and histamine release (mast cells [7]): promotes both connexin 43 and pannexinl hemichannel dependent mast cell dye uptake and histamine release
